Assay [1] relates to HMC-1.2. Nature of the assay: Induction of apoptosis in human HMC-1.2 cells by flow cytometry. In kind it is functional, cell-based.
A short description of assay [2]: Inhibition of IgE-dependent histamine release in normal human blood basophils. In kind it is functional, tissue-based. The note with it: Basophil.
A short description of assay [3]: cells. In kind it is functional, tissue-based. Particulars: Homo sapiens, Mast cell.
Description: Growth inhibition of human neoplastic mast cells incubated for 24 to 48 hrs

Structures are written as SMILES. The source made the active and inactive calls. The rule behind the calls is not given here.

For the compound `CO[C@@H]1[C@H](N(C)C(=O)c2ccccc2)C[C@H]2O[C@]1(C)n1c3ccccc3c3c4c(c5c6ccccc6n2c5c31)C(=O)NC4`, in assay [1], the outcome was Active.

For `CO[C@@H]1[C@H](N(C)C(=O)c2ccccc2)C[C@H]2O[C@]1(C)n1c3ccccc3c3c4c(c5c6ccccc6n2c5c31)C(=O)NC4O` (stereo partly specified), the IC50 (commonly the midpoint of a concentration-inhibition curve) in assay [2] was 0.01 µM. In addition, in assay [1], the outcome was inactive.

For `CN(C(=O)c1ccccc1)[C@@H]1C[C@H]2O[C@@](C)([C@@H]1O)n1c3ccccc3c3c4c(c5c6ccccc6n2c5c31)C(=O)NC4`, the half-inhibitory concentration (IC50) in assay [3] amounted to 0.05 µM; in assay [2], 0.01 µM. Moreover, the outcome in assay [1] was Active.

The values are drawn from ChEMBL document CHEMBL4725462, “Biotransformation: Impact and Application of Metabolism in Drug Discovery” (ACS Med Chem Lett, 2020).
